One molecule from patent US20250276993A1, “PSEUDO-DISACCHARIDE COMPOUNDS” (UNIVERSITEIT LEIDEN, priority 2022, published 2025) can be followed below.

Experiment [1] addresses T1, HPSE (Homo sapiens, UniProt Q9Y251).
T1 sequence (Q9Y251 36-109 limits assumed): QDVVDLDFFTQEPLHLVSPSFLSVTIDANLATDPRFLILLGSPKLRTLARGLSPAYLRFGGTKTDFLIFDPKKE
T1 sequence (Q9Y251 158-543 limits assumed): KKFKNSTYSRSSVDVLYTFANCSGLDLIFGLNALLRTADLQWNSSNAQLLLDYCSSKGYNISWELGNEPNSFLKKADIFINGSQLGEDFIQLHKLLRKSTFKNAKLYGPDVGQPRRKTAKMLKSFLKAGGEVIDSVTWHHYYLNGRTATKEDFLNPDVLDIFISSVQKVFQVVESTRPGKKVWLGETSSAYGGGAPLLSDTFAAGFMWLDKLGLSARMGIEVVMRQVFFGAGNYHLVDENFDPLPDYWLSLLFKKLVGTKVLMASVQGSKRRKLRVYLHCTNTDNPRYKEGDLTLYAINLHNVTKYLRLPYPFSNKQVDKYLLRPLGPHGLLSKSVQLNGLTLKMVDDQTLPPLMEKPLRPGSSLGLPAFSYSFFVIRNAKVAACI
As to the kind of experiment: cABPP Assay 1, recombinant HPSE. Format: biochemical. Particulars: 1 h preincubation at 37° C., pH 5.5, 100 nM ABP 7.

The next experiment deals with B16-BL6 melanoma cells. As to the kind of experiment: B16 melanoma experimental lung metastasis model. It counts as in vivo, C57BL/J6 mice. Particulars: after 14 days; 2: 300 nmol/mouse i.p.; SST0001: 150 μg/mouse i.p.; vs PBS-only control. As for the experimental part:
B16 melanoma—Twenty minutes before tumor cell inoculation, C57BL/J6 mice (n=5) were injected intraperitoneally with vehicle alone (PBS), compound 2 (300 nmol/mouse), or SST0001 (150 μg/mouse). Mice were subsequently intravenously inoculated with 1.5×10^5 B16-BL6 melanoma cells/mouse in a volume of 100 μL, alongside 20 μM 2 or 10 μg SST0001. Mice were sacrificed after 14 days and the lungs were dissected, photographed and evaluated for the number of metastatic foci/lung.
The compounds of the invention were tested against a B16 murine melanoma experimental metastasis model, which measures the formation of metastatic lung tumors by B16 cancer cells after intravenous (i.v.) injection. Additionally, the compounds of the invention were tested against a second cancer model—4T1 murine mammary carcinoma, which also metastasizes to the lungs upon injection.

The next experiment concerns U87 glioblastoma cells. As to the kind of experiment: Matrigel invasion assay. Particulars: 20 μM inhibitor, 4 h. It counts as cell-based, human. The method, then: The Matrigel invasion assay was used to assess the effects of the compounds of the invention on cancer cell aggression. This is an in cellulo model of cell invasion through a HSPG rich basement membrane. The ability of cells to migrate through transwell inserts coated with Matrigel (an ECM secretion from Engelbreth-Holm-Swarm mouse sarcoma cells) correlates well with their in vivo invasive potential (Hall et al., Methods Mol Biol, 1070, 1-11 (2014)).
1×10^5 U87 cells in 200 μL DMEM media (without serum) were seeded onto the top chamber of a Matrigel-coated Boyden transwell filter, alongside 20 μM HPSE inhibitor (or PBS control). Cells in the upper chamber were separated by Matrigel from a lower chamber containing 600 μL DMEM, supplemented with 10% FBS. Plates were incubated at 37° C. for 4 h, before fixing cells in 4% (v/v) paraformaldehyde, and staining with 0.5% (w/v) crystal violet. Matrigel and non-migrating cells in the upper side of the Boyden filter were removed by swabbing, then invading cells on the bottom side of the transwell filter imaged for analysis. 10 randomly selected microscopic fields were recorded, and cell invasion calculated using ImageJ, by quantitating the percentage of the field stained by crystal violet. Graphs were plotted using RStudio.
The Matrigel invasion assay was used to assess the effects of the compounds of the invention on cancer cell aggression. […]

In experiment [2] the target is T1, HPSE. As to the kind of experiment: HSPG digest assay, recombinant HPSE. Format: biochemical. As for the experimental part: (§1) ECM coated 35 mm culture dishes containing ^35S labelled HS were prepared as previously described (Vlodavsky et al., Curr. Protoc. Cell. Biol., Chapter 10, Unit 10, 14). Briefly, bovine corneal endothelial cells were plated at an initial density of 2×10^5 cells/ml, with 4% dextran T-40 (Sigma) included in the growth medium. Na2^35SO4 (25 μCi/ml) was added to the incubation medium on days 2 and 5 after seeding. On day 12, subendothelial ECM is exposed by dissolving the cells with PBS containing 0.5% Triton X-100 and 20 mM NH4OH, followed by four washes with PBS. For HS-degradation assays, ECM coated dishes were incubated with 200 ng recombinant HPSE in 1 mL reaction mixture (10 mM buffer Phosphate-Citrate pH 6.0, 50 mM NaCl, 1 mM DTT, 1 mM CaCl2) containing HPSE inhibitors or DMSO control. Plates were incubated at 37° C. for 5 h, then assay medium collected and applied to a 0.9×30 cm Sepharose 6B size exclusion column. The Sepharose 6B column was eluted with PBS, and ^35S radioactivity of 0.2 mL fractions quantitated using a liquid scintillation analyzer (Packard BioScience). Digest assays with U87 cell lysates were carried out in a similar fashion, except plates were incubated for 18 h with cell extracts prepared from 1×10^6 U87 glioma cells lysed by 3× freeze/thaw cycles.
The compounds of the invention were assessed against HPSE degradation of bona fide HSPGs in a physiologically relevant ECM-like environment. Cultured bovine corneal […] cells secrete a subendothelial basement membrane material rich in HSPGs, and their growth in the presence of ^35SO4^2− results in ^35S radiolabeled HSPGs (Vlodavsky et al., Curr Protoc Cell Biol, Chapter 10, Unit 10, 4, 2001). H^35S chains attached to these HSPGs are detectable after solubilization by HPSE, with enzyme inhibition leading to a corresponding reduction of signal.

Experiment [3] has as its target T1, HPSE. As to the kind of experiment: Fondaparinux cleavage assay. Format: biochemical.
The next experiment relates to CAG human myeloma cells. The experiment is described as follows: CAG myeloma metastasis model. It counts as in vivo, NOD/SCID mice. As for the experimental part:
CAG myeloma—Luciferase-labeled CAG human myeloma cells (3×10^6) were injected into the tail vein of NOD/SCID mice. 3-5 days after cell inoculation, mice were randomly assigned to 4 cohorts (6 mice each) receiving: (a) vehicle, (b) compound 2 (i.p. 300 nmol/day), (c) bortezomib (0.5 mg/kg twice weekly) or (d) 2 plus bortezomib (dosing as for individual compounds). Tumor development was inspected (every 7 days) by IVIS imaging as detailed above. Tumor burden was quantified using Living Image software. Plots and statistical analyses were carried out in Prism 9 (Graphpad software).

Experiment [4] concerns HPSE in U87 glioma-cell lysates. As to the kind of experiment: HSPG digest assay, U87 cell lysates. Format: cell-based, human. Particulars: inhibitor applied before or after cell lysis, comparable H35S solubilization profiles. As for the experimental part:
as §1

SMILES strings stand for the structures.

For the molecule `CC(=O)NC1C(O)[C@H](O)C(CO)O[C@@H]1O[C@H]1C(O)C(O)[C@@H]2OC2C1C(=O)O` (stereo partly drawn) [Compound 2, 4-O-(2-N-acetyl-2-deoxy-D-glucopyranosyl)-glucurono-cyclophellitol], the “HPSE inhibition (abrogation of labelling by ABP 7)” value at HPSE [1] is “inhibited HPSE at nanomolar concentrations”. In the experiment with B16-BL6 melanoma cells, the “lung metastases (B16)” value is on record as “marked reduction in lung growths”. In the experiment with U87 glioblastoma cells, the Matrigel invasion entry is listed as “significantly reduced Matrigel invasion”. In addition, at HPSE [2] (200 ng recombinant HPSE, pH 6.0, 5 h), the “inhibition of HPSE degradation of 35S-labelled HSPGs” value is reported as “robust, dose dependent inhibition”. Besides, the “concentration giving comparable levels of inhibition” value at HPSE [2] (HSPG digest, recombinant HPSE) turned out to be 1 µM. Moreover, the “fold more potent than reference inhibitors #98 (10) and OGT2115 (11)” value on HPSE [3] is “approximately 2 fold”. Also, the “metastatic burden (CAG myeloma)” value with CAG human myeloma cells (2: i.p. 300 nmol/day, bortezomib 0.5 mg/kg twice weekly, IVIS imaging) is reported as “marked reduction in metastatic burden”. Also, the “efficacy at prolonged treatment (CAG myeloma)” value in the experiment with CAG human myeloma cells (33 day timepoint) was “lower efficacy following prolonged treatment”. Further, in experiment [4], the “cell penetration / inhibition of intracellular HPSE pool” value was “can penetrate cells to inhibit the intracellular HPSE pool”.
